Results reported in patent US9808445B2, “Factor IXa inhibitors” (Merck Sharp & Dohme Corp., priority 2014, dated 2017).

target: human factor IXa (Homo sapiens (Human), UniProt P00740); assay: Determination of inhibitory activity against factor IXa (fluorogenic substrate SPECTROFLUOR FIXa); assay type: biochemical; settings: Factor IXa enzyme assay human
Method: Inhibitory activity against factor IXa was tested using the substrate SPECTROFLUOR FIXa (american diagnostica inc.; 500 West Avenue, Stamford, Conn. 06902 USA; Pr. No. 299F) and human factor IXa (american diagnostica inc.; Pr. No. 449b). Test substances were dissolved in buffer A (50 mM α,α,α-tris (hydroxymethyl) methylamine (Tris), 100 mM NaCl, 5 mM CaCl2, 15% (v/v) ethylene glycol, pH 8.0) were mixed with factor IXa (0.1 μg/ml final concentration). The enzyme reaction was started by addition of SPECTROFLUOR FIXa (100 μM final concentration). After incubation for 60 minutes at room temperature, the reaction was stopped by the addition of 20% (v/v) acetic acid solution, and then the fluorescence value was measured (Excitation Wavelength: 355 nm, Emission Wavelength; 460 nm) in a microtiter plate reader (ARVO 1420 Multilabel Counter; PerkinElmer).
The IC50 was calculated from a dilution series of the test substance with the aid of the software, Symyx Assay Explorer (Symyx Technologies, Inc.).

Chain of human factor IXa (P00740 227-461): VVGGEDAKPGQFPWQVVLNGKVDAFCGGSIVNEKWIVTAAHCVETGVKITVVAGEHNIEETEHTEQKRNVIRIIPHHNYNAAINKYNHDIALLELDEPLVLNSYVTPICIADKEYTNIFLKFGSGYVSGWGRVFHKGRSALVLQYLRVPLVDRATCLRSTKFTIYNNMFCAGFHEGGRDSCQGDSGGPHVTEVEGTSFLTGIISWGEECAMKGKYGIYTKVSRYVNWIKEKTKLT
Chain of human factor IXa (P00740 47-191 partner): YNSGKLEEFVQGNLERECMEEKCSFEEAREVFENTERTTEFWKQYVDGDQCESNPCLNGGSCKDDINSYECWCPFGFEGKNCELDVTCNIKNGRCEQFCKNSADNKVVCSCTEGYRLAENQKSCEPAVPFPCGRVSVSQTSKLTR

| IC50 [nM] | Structure (SMILES) |
| --- | --- |
| ≤ 100 | Nc1noc2c(N3CC4CCC3C4NC(=O)c3ccc(-n4cncn4)cc3Cl)ncc(Cl)c12 (single isomer, unassigned) [Example 8.1, N-((1S*,4S*,7R*)-2-(3-Amino-4-chloroisoxazolo[5,4-c]pyridin-7-yl)-2-azabicyclo[2.2.1]heptan-7-yl)-2-chloro-4-(1H-1,2,4-triazol-1-yl)benzamide] |
| ≤ 100 | Nc1noc2c(N3C[C@@H]4CC[C@H]3[C@@H]4NC(=O)c3ccc(-n4cnc5ncccc54)cc3Cl)ncc(Cl)c12 (relative stereo) [Example 22, N-((1S*,4S*,7R*)-2-(3-Amino-4-chloroisoxazolo[5,4-c]pyridin-7-yl)-2-azabicyclo[2.2.1]heptan-7-yl)-2-chloro-4-(1H-imidazo[4,5-b]pyridin-1-yl)benzamide] |
| ≤ 100 | Nc1noc2c(N3C[C@@H]4CC[C@H]3[C@@H]4NC(=O)c3ccc(-c4cncnc4)cc3Cl)ncc(Cl)c12 (relative stereo) [Example 9, N-((1S*,4S*,7R*)-2-(3-Amino-4-chloroisoxazolo[5,4-c]pyridin-7-yl)-2-azabicyclo[2.2.1]heptan-7-yl)-2-chloro-4-(pyrimidin-5-yl)benzamide] |
| ≤ 100 | Cc1ncn(-c2cnc(C(=O)N[C@@H]3[C@H]4CC[C@@H]3N(c3ncc(Cl)c5c(N)noc35)C4)c(Cl)c2)n1 (single isomer, unassigned) [Example 29, N-((1S*,4S*,7R*)-2-(3-Amino-4-chloroisoxazolo[5,4-c]pyridin-7-yl)-2-azabicyclo[2.2.1]heptan-7-yl)-3-chloro-5-(3-methyl-1H-1,2,4-triazol-1-yl)picolinamide] |
| 100 to 1000 | Cc1cc2c(N)noc2c(N2CC3CCC2C3NC(=O)c2ccc(-n3cnc(C)n3)cc2Cl)n1 (single isomer, unassigned) [Example 11.1, N-((1S*,4S*,7R*)-2-(3-Amino-5-methylisoxazolo[5,4-c]pyridin-7-yl)-2-azabicyclo[2.2.1]heptan-7-yl)-2-chloro-4-(3-methyl-1H-1,2,4-triazol-1-yl)benzamide] |
